Reference: article PMC7237442, “Drosophila taste neurons as an agonist-screening platform for P2X receptors” (Scientific Reports, 2020)
Substitutions are numbered along the chain they refer to.

Assays:
[1] = biological target: T1, rat P2X2 (Rattus norvegicus, UniProt P49653); assay: action potential recording from Drosophila taste neurons, tested at […]; partial agonist; assay type: cell-based
T1 construct: gene P2rx2; rat P2X2 with C-terminal mCherry fusion
T1 sequence (P49653 1-472): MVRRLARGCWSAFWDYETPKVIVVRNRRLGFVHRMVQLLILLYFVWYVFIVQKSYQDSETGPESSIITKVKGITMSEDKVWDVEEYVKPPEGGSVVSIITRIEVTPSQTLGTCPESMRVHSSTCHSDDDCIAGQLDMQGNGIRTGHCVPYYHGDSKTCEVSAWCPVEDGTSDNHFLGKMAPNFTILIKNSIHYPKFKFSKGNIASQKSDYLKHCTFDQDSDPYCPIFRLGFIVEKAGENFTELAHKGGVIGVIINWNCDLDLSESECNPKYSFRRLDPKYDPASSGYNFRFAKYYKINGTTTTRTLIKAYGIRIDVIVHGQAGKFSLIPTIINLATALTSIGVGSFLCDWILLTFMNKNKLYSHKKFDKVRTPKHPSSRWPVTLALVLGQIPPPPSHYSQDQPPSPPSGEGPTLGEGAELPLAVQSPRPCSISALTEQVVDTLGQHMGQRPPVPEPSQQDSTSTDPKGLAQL

[2] = biological target: T2, rat P2X2 (Rattus norvegicus, UniProt P49653, T184I); assay: action potential recording from Drosophila taste neurons expressing the mutant
T2 construct: gene P2rx2; T184I rP2X2::GFP
T2 sequence (P49653 1-472 T184I): T1 sequence (P49653 1-472) with T184I

[3] = biological target: T1, rat P2X2; assay: action potential recording from Drosophila taste neurons expressing the receptor; also whole-cell voltage clamp in HEK […] cells
[4] = biological target: T3, human P2X2 (Homo sapiens, UniProt Q9UBL9); assay: action potential recording from Drosophila taste neurons, […] ATP; assay type: cell-based
T3 construct: gene P2RX2; human P2X2 variant A with C-terminal mCherry fusion tag
T3 sequence (Q9UBL9 1-471): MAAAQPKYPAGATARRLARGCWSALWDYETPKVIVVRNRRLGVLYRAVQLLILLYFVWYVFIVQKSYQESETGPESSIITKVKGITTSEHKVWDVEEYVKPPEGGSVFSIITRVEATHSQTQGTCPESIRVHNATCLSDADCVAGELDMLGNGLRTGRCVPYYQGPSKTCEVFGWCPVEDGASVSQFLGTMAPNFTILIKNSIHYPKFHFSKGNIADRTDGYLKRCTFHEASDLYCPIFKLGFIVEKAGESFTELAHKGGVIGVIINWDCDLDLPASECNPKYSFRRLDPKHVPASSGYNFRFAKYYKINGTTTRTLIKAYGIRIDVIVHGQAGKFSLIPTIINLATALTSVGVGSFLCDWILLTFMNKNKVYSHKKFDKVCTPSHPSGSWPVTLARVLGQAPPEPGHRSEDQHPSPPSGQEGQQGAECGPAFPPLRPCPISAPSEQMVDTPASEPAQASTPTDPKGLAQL

[5] = biological target: T2, rat P2X2; assay: action potential recording from Drosophila taste neurons, tested at […]; assay type: cell-based
[6] = biological target: T1, rat P2X2; assay: as above; assay type: cell-based
[7] = biological target: T1, rat P2X2; assay: action potential recording from Drosophila taste neurons; confirmed by whole-cell voltage clamp in HEK […] cells at […]

With `Nc1nc(O)nc2c1ncn2[C@@H]1O[C@H](COP(=O)(O)OP(=O)(O)OP(=O)(O)O)[C@@H](O)[C@H]1O` [2OH-ATP] the “action potential recording from Drosophila taste neurons, tested at 100 μM; part” value [1] was “several modifications at this position show full (2F-ATP) or partial (2-hydroxy-ATP) agonist activity”.

For `Nc1ncnc2c1ncn2[C@@H]1O[C@H](COP(=O)(O)OP(=O)(O)OP(=O)(O)O)[C@@H](O)[C@H]1O` [ATP], the EC50 [2] was 145 µM, the EC50 [3] was 8.7 µM and the “action potential recording from Drosophila taste neurons, 10 μM ATP” value [4] was “The human P2X2 ortholog was also tested in Drosophila taste neurons ... and it responded to ATP in a similar fashion”.

With `Nc1ncnc2c1ncn2[C@@H]1O[C@H](CO[P@](=O)(O)O[P@](=O)(O)O[P@@](=O)(O)S)[C@@H](O)[C@H]1O` [ATPγS] the “action potential recording from Drosophila taste neurons, tested at 100 μM” value [5] was “flies expressing rat P2X2^T184I and found that ATPγS, ATPαS and 2F-ATP elicited responses similar to ATP” and the “action potential recording from Drosophila taste neurons, tested at 100 μM” value [6] was “ATPγS and ATPαS have previously been shown to act as agonists ... both were also effective agonists in the Drosophila system”.

In the case of `Nc1nc(F)nc2c1ncn2[C@@H]1O[C@H](COP(=O)(O)OP(=O)(O)OP(=O)(O)O)[C@@H](O)[C@H]1O` [2F-ATP], the EC50 [7] is reported as 17.2 µM and the “action potential recording from Drosophila taste neurons, tested at 100 μM” value [5] is reported as “flies expressing rat P2X2^T184I and found that ATPγS, ATPαS and 2F-ATP elicited responses similar to ATP”.

`Nc1ncnc2c1ncn2[C@@H]1O[C@H](COP(O)(=S)OP(=O)(O)OP(=O)(O)O)[C@@H](O)[C@H]1O` (stereo partly drawn) [ATPαS] was tested, and the “action potential recording from Drosophila taste neurons, tested at 100 μM” value [6] was “Several adenosine nucleotides gave responses as large as ATP, including the previously identified agonists ATPγS and ATPαS”.
